Test results taken from US8846661B2, “Diazahomoadamantane derivatives and methods of use thereof” (AbbVie Inc., priority 2009, dated 2014).

Biological target: α7 NNR (UniProt Q05941)
Settings: [3H]-DPPB binding
Experimental: [^3H]-DPPB, [^3H]-(S,S)-2,2-dimethyl-5-(6-phenyl-pyridazin-3-yl)-5-aza-2-azonia-bicyclo[2.2.1]heptane iodide, binding to the α7 NNR subtype was determined using membrane enriched fractions from rat brain minus cerebellum or human cortex (ABS Inc., Wilmington, Del.) as described in Anderson, D. J.; et al., J. Pharmacol. Exp. Ther. 2008, 324: 179-187 which is incorporated herein by reference. Briefly, pellets were thawed at 4° C., washed and resuspended with a Polytron at a setting of 7 in 30 volumes of BSS-Tris buffer (120 mM NaCl, 5 mM KCl, 2 mM CaCl2, 2 mM MgCl2, and 50 mM Tris-C1, pH 7.4, 4° C.). Seven log-dilution concentrations of test compounds containing 100-200 μg of protein, and 0.5 nM [^3H]-DPPB (62.8 Ci/mmol; R46V, Abbott Labs) were incubated in a final volume of 500 μL for 75 minutes at 4° C. in duplicate. Non-specific binding was determined in the presence of 10 μM methyllycaconitine. Bound radioactivity was collected on Millipore MultiScreen® harvest plates FB presoaked with 0.3% polyethyleneimine using a Packard cell harvester, washed with 2.5 mL ice-cold buffer, and radioactivity was determined using a Packard TopCount Microplate beta counter. IC50 values were determined by nonlinear regression in Microsoft® Excel or Assay Explorer. K, values were calculated from the IC50s using the Cheng-Prusoff equation, where Ki=IC50/(1+[Ligand]/KD) and are shown in Table 1.

| Molecule | Ki |
| --- | --- |
| 4-[5-(3,4-difluorophenyl)pyridin-3-yl]-1,4-diazatricyclo[4.3.1.1^3s]undecane [Example 99] | > 10000 nM |
| O=C1NC2CC3CC1CN(C3)C2 (stereo not shown) [Example 1, 1,4-diazatricyclo[4.3.1.1^3,8]undecan-5-one] | 701 nM |
| O=C(c1cc2ccsc2cn1)N1CC2CC3CC1CN(C3)C2 (stereo not shown) [Example 3, 4-(thieno[2,3-c]pyridin-5-ylcarbonyl)-1,4-diazatricyclo[4.3.1.1^3,8]undecane] | 11.6 nM |
| O=C(c1ccc2sccc2n1)N1CC2CC3CC1CN(C3)C2 (stereo not shown) [Example 4, 4-(thieno[3,2-b]pyridin-5-ylcarbonyl)-1,4-diazatricyclo[4.3.1.1^3,8]undecane] | 456 nM |
| O=S1(=O)c2ccccc2-c2ccc(N3CC4CC5CC3CN(C5)C4)cc21 (stereo not shown) [Example 5, 4-(5,5-dioxidodibenzo[b,d]thien-3-yl)-1,4-diazatricyclo[4.3.1.1^3,8]undecane] | 2.3 nM |
| c1cc2cc(-c3ccc(N4CC5CC6CC4CN(C6)C5)nn3)ccc2s1 (stereo not shown) [Example 8, 4-[6-(1-benzothien-5-yl)pyridazin-3-yl]-1,4-diazatricyclo[4.3.1.1^3,8]undecane] | 3.5 nM |
| O=C(c1ccc2[nH]ccc2c1)N1CC2CC3CC1CN(C3)C2 (stereo not shown) [Example 37, 4-(1H-indol-5-ylcarbonyl)-1,4-diazatricyclo[4.3.1.1^3,8]undecane] | > 10000 nM |
| O=C(c1n[nH]c2ccccc12)N1CC2CC3CC1CN(C3)C2 (stereo not shown) [Example 57, 4-(1H-indazol-3-ylcarbonyl)-1,4-diazatricyclo[4.3.1.1^3,8]undecane] | 23.6 nM |
| c1cc(-c2cncc(N3CC4CC5CC3CN(C5)C4)c2)c2cc[nH]c2c1 (stereo not shown) [Example 104, 4-[5-(1H-indol-4-yl)pyridin-3-yl]-1,4-diazatricyclo[4.3.1.1^3,8]undecane] | 26.3 nM |
| COc1ccc(-c2cnc(N3CC4CC5CC3CN(C5)C4)s2)cc1 (stereo not shown) [Example 105, 4-[5-(4-methoxyphenyl)-1,3-thiazol-2-yl]-1,4-diazatricyclo[4.3.1.1^3,8]undecane] | 133 nM |
| Cc1ccc(-c2cnc(N3CC4CC5CC3CN(C5)C4)s2)cc1 (stereo not shown) [Example 106, 4-[5-(4-methylphenyl)-1,3-thiazol-2-yl]-1,4-diazatricyclo[4.3.1.1^3,8]undecane] | 26.4 nM |
| Fc1cccc(-c2cnc(N3CC4CC5CC3CN(C5)C4)s2)c1 (stereo not shown) [Example 108, 4-[5-(3-fluorophenyl)-1,3-thiazol-2-yl]-1,4-diazatricyclo[4.3.1.1^3,8]undecane] | 37.7 nM |
| Fc1ccc(-c2cnc(N3CC4CC5CC3CN(C5)C4)s2)cc1 (stereo not shown) [Example 110, 4-[5-(4-fluorophenyl)-1,3-thiazol-2-yl]-1,4-diazatricyclo[4.3.1.1^3,8]undecane] | 53.6 nM |
| Clc1ccc2nc(N3CC4CC5CC3CN(C5)C4)sc2c1 (stereo not shown) [Example 111, 4-(6-chloro-1,3-benzothiazol-2-yl)-1,4-diazatricyclo[4.3.1.1^3,8]undecane] | 114 nM |
| Clc1ccc2nc(N3CC4CC5CC3CN(C5)C4)oc2c1 (stereo not shown) [Example 112, 4-(6-chloro-1,3-benzoxazol-2-yl)-1,4-diazatricyclo[4.3.1.1^3,8]undecane] | 35.5 nM |
| c1ccc2sc(N3CC4CC5CC3CN(C5)C4)nc2c1 (stereo not shown) [Example 113, 4-(1,3-benzothiazol-2-yl)-1,4-diazatricyclo[4.3.1.1^3,8]undecane] | > 10000 nM |
